Test results: PMC12447755, “β-Lactamase cleavable antimicrobial peptide–drug conjugates” (Chemical Science, 2025)
In brackets after ≈: the same amount, converted by molar mass. Where two headings read alike, the source gives them in different places. Where no end group is shown, it is not given here.

Legend:
[1] = tested on: Serratia marcescens ATCC39006; experiment: microbe, parasite or virus in culture; conditions: ATCC39006, 16 h
[2] = tested on: P. aeruginosa strain PAO1
[3] = tested on: Escherichia coli DH5a; experiment: microbe, parasite or virus in culture; conditions: 16 h
[4] = tested on: P. aeruginosa strain PA14; conditions: for MIC for PA14: PA14, 18 h
[5] = tested on: Enterococcus faecalis ATCC29212; experiment: microbe, parasite or virus in culture; conditions: ATCC29212, 16 h
[6] = tested on: P. aeruginosa strain PAO1; experiment: microbe, parasite or virus in culture; conditions: Pseudomonas aeruginosa, PAO1, 16 h, read-out: MIC for PAO1
[7] = tested on: P. aeruginosa strain PA14; experiment: microbe, parasite or virus in culture; conditions: Pseudomonas aeruginosa
[8] = tested on: Escherichia coli DH5a; conditions: 16 h
[9] = tested on: Methicillin-resistant Staphylococcus aureus MRSA15; conditions: Table 4; broth microdilution in MH medium, 37 °C, 16 h
[10] = tested on: Burkholderia thailandensis E264; conditions: Table 4; broth microdilution in MH medium, 37 °C, 16 h
[11] = tested on: Enterococcus faecalis ATCC29212; conditions: ATCC29212, 16 h
[12] = tested on: Serratia marcescens ATCC39006; conditions: ATCC39006, 16 h
[13] = tested on: Klebsiella pneumoniae CK1; conditions: CK1, 16 h
[14] = human serum 100 µL in 400 µL MES buffer (pH 6, 50 mM), 37 °C, protein precipitated with 1:1 DMSO:ethanol, HPLC at 220 nm, caffeine standard; Fig. 5b, values not given
[15] = tested on: PAO1 strain containing plasmid pUCP20, which encodes a β-lactamase; experiment: MIC determination using broth microdilution method; assay type: cell-based, Pseudomonas aeruginosa
[16] = Background stability in PBS buffer; assay type: physicochemical; conditions: PBS buffer pH 7.4 (50 mM), 37 °C, HPLC at 280 nm, Fig. 5a; values not given
[17] = tested on: P. aeruginosa; experiment: Drug synergism assay; assay type: cell-based, Pseudomonas aeruginosa; conditions: P2a combined with ciprofloxacin, checkerboard in MH medium, 37 °C, 16 h; synergy threshold 0.5; strain not stated
Procedure: measured and 15 µL of thiazolyl blue tetrazolium bromide (MTT; 1 mg/mL stock solution in water; Acros) was added to each well of the plate. The MIC was defined as the lowest concentration of the compound with a colourless well indicating no bacterial growth and the results cross-checked with OD600 reading. Each sample was run in triplicate on the same plate. Polymyxin B or ciprofloxacin or both were used as positive controls to ensure comparability of results across different experiments.
Bacterial culture was quantified by measuring the OD600, medium exchanged to MH-medium and culture diluted to OD600 of 0.022 in MH-medium. Stock solution of compound A was diluted to twice the starting concentration in MH medium. […] The next day, OD600 of the microtiter plate was measured and 15 µL of thiazolyl blue tetrazolium bromide (MTT; 1 mg/mL stock solution in water) was added to each well of the plate to cross-check the OD600 readings. […]
150 µL of the solution was added to 96-well plate (3 wells per bacterium) as well as 150 µL of MH medium as a negative control (further 3 wells per bacterium). The media were inoculated with 4 µL of the diluted bacterial solution and incubated in a plate reader at 37◦C for 16 h and absorption at 482 nm (Abs482) and 600 nm (OD600) was continuously measured throughout the incubation. […]

[18] = tested on: Pseudomonas aeruginosa strain PAO1; experiment: Initial susceptibility testing at a fixed concentration; assay type: cell-based; design: key: Tick (✓) represents OD600 comparable to no-growth control; cross (✗) represents OD600 comparable to growth control without any peptide; conditions: 256 μg mL−1 of peptide, overnight incubation, OD600 compared with growth and no-growth controls

Compound	MIC [8] [µg/mL]	MIC for PAO1 ([2]; PAO1, 18 h) [µM]	MIC [9] [µg/mL]	MIC [11] [µg/mL]	MIC for PA14 [4] [µM]	MIC [12] [µg/mL]	MIC [13] [µg/mL]	serum stability [14]	PA14 MIC ([4]; Table S3, initial MIC values) [µg/mL]	other results
O=C(O)c1cn(C2CC2)c2cc(N3CCNCC3)c(F)cc2c1=O [Ciprofloxacin, ciprofloxacin]	–	–	–	–	–	–	–	–	–	MIC [1]: 0.0625 µg/mL (≈ 0.189 µM); MIC for PAO1 ([2]; Table 3, data combined from multiple experiments, standard medium): 0.38 µM; PAO1 MIC ([2]; Table S5, altered linking region between peptide and cephalosporin): 0.125 µg/mL; MIC [3]: 0.0078 µg/mL (≈ 0.0235 µM); PA14 MIC ([4]; Table S5): 0.0625 µg/mL; MIC [5]: 0.5 µg/mL (≈ 1.51 µM); MIC [6]: 0.125 µg/mL (≈ 0.377 µM); MIC ([7]; PA14, 16 h, read-out: MIC for PA14): 0.0625 µg/mL; MIC ([7]; PA14, read-out: MIC for PA14): 0.19 µM
CC(=O)OCC1=C(C(=O)O)N2C(=O)[C@@H](NC(=O)CCCNc3nc4cc(n3)CCSC[C@H](NC(=O)[C@@H](N)Cc3ccccc3)C(=O)N[C@@H](CCCCN)C(=O)N[C@@H](Cc3c[nH]c5ccccc35)C(=O)N[C@@H](C)C(=O)N[C@@H](Cc3ccccc3)C(=O)N[C@@H](CCCCN)C(=O)N[C@@H](Cc3c[nH]c5ccccc35)C(=O)N[C@H](C(=O)N[C@@H](CCCCN)C(=O)N[C@@H](CCCCN)C(N)=O)CSCC4)[C@H]2SC1 [P2-8]	32 (≈ 16.3 µM)	> 33	64 (≈ 32.6 µM)	2 (≈ 1.02 µM)	> 33	≥ 64	≥ 64	improved stability over unstapled P2a	–	MIC [10]: ≥ 64 µg/mL
C[C@@H]1NC(=O)[C@H](Cc2c[nH]c3ccccc23)NC(=O)[C@H](CCCCN)NC(=O)[C@@H](NC(=O)[C@@H](N)Cc2ccccc2)CSCCc2cc(nc(NCCCC(=O)N[C@@H]3C(=O)N4C(C(=O)O)C(COC(=O)N5CCN(c6cc7c(cc6F)c(=O)c(C(=O)O)cn7C6CC6)CC5)=CS[C@H]34)n2)CCSC[C@@H](C(=O)N[C@@H](CCCCN)C(=O)N[C@@H](CCCCN)C(N)=O)NC(=O)[C@H](Cc2c[nH]c3ccccc23)NC(=O)[C@H](CCCCN)NC(=O)[C@H](Cc2ccccc2)NC1=O (stereo partly drawn) [P2-10]	1 (≈ 0.439 µM)	7.0	–	16 (≈ 7.03 µM)	7.0	16 (≈ 7.03 µM)	≥ 64	improved stability over unstapled P2a	16	reduction in MIC in PAO1 with plasmid pUCP20 versus PAO1 ([15]; Fig. 4 and Table 3): one half; PAO1 MIC ([2]; Table S3, initial MIC values): 16 µg/mL; MIC for PAO1 after adding β-lactamase ([2]; medium supplemented with 1 nM recombinant β-lactamase): 2 µg/mL; background hydrolysis rate mediated by buffer only [16]: significantly lower than when β-lactamase was present
FAKWAFKWLKK-NH2 [P2a, reference compound]	4	–	32	≥ 64	–	≥ 64	–	–	32	fractional inhibitory concentration index [17]: 0.75; cell growth inhibition in strain with plasmid versus without ([15]; OD600 growth curve, triplicate, Fig. 4b): no difference in cell growth inhibition; Inh (inhibition) [18]: ✗; PAO1 MIC ([2]; PAO1, 18 h): 11 µM; PAO1 MIC ([2]; Table S4, cephalosporin-based staple 8 at different positions): 16 µg/mL; MIC PA14 ([4]; PA14, 16 h): 64 µg/mL; PA14 MIC ([4]; Table S4): 22 µM
